# From ChEMBL document CHEMBL1201862, “PubChem BioAssay data set” (2004)
#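 Grown in 96-well plates, cells were treated for 48 hours with each compound at five concentrations. Insufficient inhibition: endpoint recorded as highest concentration tested. At the GI50, growth is halved.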 Calls of active or inactive are those of the source. Cut-off read from the data, not from the text of the source: active = GI50 up to about 1.1 µM and inactive = higher.
# Legend:
# Assay in all cases: DTP human tumour cell line panel, 48 h
# [1] = tested on: Hs-578T
# [2] = tested on: OVCAR-4
# [3] = tested on: HCC 2998
# [4] = tested on: IGROV-1
# [5] = tested on: OVCAR-3
# [6] = tested on: SK-OV-3
# [7] = tested on: SN12C
# [8] = tested on: SK-MEL-2
# [9] = tested on: ACHN
# [10] = tested on: OVCAR-5
# [11] = tested on: COLO 205
# [12] = tested on: PC-3
# [13] = tested on: HT-29
# [14] = tested on: SNB-19
# [15] = tested on: SK-MEL-5
# [16] = tested on: MOLT-4
# [17] = tested on: CCRF-CEM
# [18] = tested on: HCT-15
# [19] = tested on: LOX IMVI
SMILES,GI50 [1],GI50 [2],GI50 [3],GI50 [4],GI50 [5],GI50 [6],GI50 [7],GI50 [8],GI50 [9],GI50 [10],GI50 [11],GI50 [12],GI50 [13],GI50 [14],GI50 [15],GI50 [16],GI50 [17],GI50 [18] [µM],GI50 [19]
Cc1ccsc1/C=N/Nc1cc(C)c2cccc(C)c2n1,> 100 µM (inactive),> 100 µM (inactive),> 100 µM (inactive),1.6 µM (inactive),> 100 µM (inactive),84.5 µM (inactive),> 100 µM (inactive),> 100 µM (inactive),> 100 µM (inactive),> 100 µM (inactive),> 100 µM (inactive),4.89 µM (inactive),4.14 µM (inactive),> 100 µM (inactive),,,,,
CN(C(=O)C12C3C4C1C1C2C3C41C(=O)O)C(C)(C)C (configuration not stated),> 100 µM (inactive),> 100 µM (inactive),> 100 µM (inactive),> 100 µM (inactive),> 100 µM (inactive),,> 100 µM (inactive),> 100 µM (inactive),> 100 µM (inactive),> 100 µM (inactive),> 100 µM (inactive),> 100 µM (inactive),> 100 µM (inactive),> 100 µM (inactive),> 100 µM (inactive),> 100 µM (inactive),> 100 µM (inactive),> 100,> 100 µM (inactive)
O=C(O)c1ccccc1Sc1ccc(C=C2NC(=S)N(c3ccccc3)C2=O)s1,> 100 µM (inactive),24.9 µM (inactive),97.5 µM (inactive),> 100 µM (inactive),47.5 µM (inactive),,> 100 µM (inactive),22.2 µM (inactive),39.6 µM (inactive),> 100 µM (inactive),54.7 µM (inactive),> 100 µM (inactive),> 100 µM (inactive),> 100 µM (inactive),> 100 µM (inactive),54.1 µM (inactive),,> 100,> 100 µM (inactive)
CC(=O)OC12c3ccccc3C(c3ccccc31)C1C(=O)N(Nc3ccccc3)C(=O)C12 (configuration not stated),23.1 µM (inactive),> 100 µM (inactive),> 100 µM (inactive),> 100 µM (inactive),> 100 µM (inactive),> 100 µM (inactive),> 100 µM (inactive),,> 100 µM (inactive),> 100 µM (inactive),> 100 µM (inactive),> 100 µM (inactive),> 100 µM (inactive),> 100 µM (inactive),> 100 µM (inactive),> 100 µM (inactive),> 100 µM (inactive),> 100,> 100 µM (inactive)
CC(C)C1=C(Cc2ccccc2)C(=O)O/C1=C\c1cc(Cl)c(O)c(Cl)c1,21.8 µM (inactive),15.6 µM (inactive),18.6 µM (inactive),19.4 µM (inactive),14.2 µM (inactive),19.2 µM (inactive),17.2 µM (inactive),,17.3 µM (inactive),21.7 µM (inactive),17.4 µM (inactive),16.9 µM (inactive),16.9 µM (inactive),17.1 µM (inactive),18.7 µM (inactive),21.2 µM (inactive),16 µM (inactive),18.2,17.4 µM (inactive)
